Test results: patent US7534809B2, “Phospho-indoles as HIV inhibitors” (priority 2004, dated 2009)
Like-named read-outs stand apart in the source and are kept apart here.

Experiments:
HIV BH-10 WT = test: Cell-based assay using BH-10 cells, wild type
[1] = test system: HIV mutant strain K103N/Y181C; test: Cell-based assay using BH-10 cells, K103N/Y181C mutant
Protocol: (§1) In a typical embodiment, the NNRTIs display an EC50 in a mutant HIV strain of less than approximately 5, 2.5, 1 or 0.1 μM concentration. The degree of cross-resistance against a drug resistant strain of HIV is measured by assessing the EC50 of the desired oxo-pyrimidine compound in the target mutated, i.e., drug resistant, virus.
(§2) The degree of cross-resistance against a drug resistant strain of HIV can easily be measured by assessing the EC50 of the desired indole in the target mutated i.e., drug resistant, virus.

HIV mutant strain Y181C = test: Cell-based assay using BH-10 cells, Y181C mutant
Protocol: as §1, §2

[2] = BH-10 cells, wild type, read-out: EC50 WT///B
[3] = BH-10 cells, K103N/Y181C mutant, read-out: EC50 K103N/Y181C
[4] = BH-10 cells, Y181C mutant, read-out: EC50 Y181C
[5] = Human immunodeficiency virus 1, read-out: EC50 WT///B, BH-10 cells, wild type
[6] = Human immunodeficiency virus 1, read-out: EC50 K103N/Y181C, BH-10 cells, K103N/Y181C mutant
[7] = Human immunodeficiency virus 1, read-out: EC50 Y181C, BH-10 cells, Y181C mutant
[8] = read-out: EC50 K103N/Y181C, BH-10 cells, K103N/Y181C mutant

| Compound | EC50 (HIV BH-10 WT; [2]) | EC50 [1, 3] | EC50 (HIV mutant strain Y181C; [4]) | EC50 (HIV BH-10 WT; [5]) | EC50 [1, 6] | EC50 (HIV mutant strain Y181C; [7]) | EC50 [1, 8] | EC50 (HIV BH-10 WT; read-out: EC50 WT///B, BH-10 cells, wild type) |
| --- | --- | --- | --- | --- | --- | --- | --- | --- |
| COP(=O)(c1cc(C)cc(C)c1)c1c(C(=O)NCc2c(F)ccc(F)c2F)[nH]c2ccc(Cl)cc12 (centres unmarked) [CONHCH2(Ph: 2,3,6-tri-F)] | 17.9 nM | 22.8 nM | 17.1 nM | – | – | – | – | – |
| CCOP(=O)(c1cc(C)ccc1C)c1c(C(N)=O)[nH]c2ccc(Cl)cc12 (centres unmarked) [Compound 6aa] | 0.2 nM | 1.6 nM | 1.9 nM | – | – | – | – | – |
| CCOP(=O)(c1cccc(C)c1)c1c(C(N)=O)[nH]c2ccc(Cl)cc12 (centres unmarked) [Compound 6ab] | – | – | – | 0.5 nM | 19.6 nM | 34.8 nM | – | – |
| CCOP(=O)(c1cccc(F)c1)c1c(C(N)=O)[nH]c2ccc(Cl)cc12 (centres unmarked) [Compound 6ae] | 0.5 nM | 11 nM | 61.6 nM | – | – | – | – | – |
| CCOP(=O)(c1ccccc1CC)c1c(C(N)=O)[nH]c2ccc(Cl)cc12 (centres unmarked) [Compound 6ah] | – | – | – | 16.2 nM | 307 nM | 211 nM | – | – |
| CCOP(=O)(c1ccccc1Cl)c1c(C(N)=O)[nH]c2ccc(Cl)cc12 (centres unmarked) [Compound 6ai] | – | – | – | 1.2 nM | 17.3 nM | 146 nM | – | – |
| CCOP(=O)(c1cccc(Cl)c1)c1c(C(N)=O)[nH]c2ccc(Cl)cc12 (centres unmarked) [Compound 6d] | – | – | – | 1.4 nM | 15.8 nM | 16.6 nM | – | – |
| CCOP(=O)(c1cccc(CC)c1)c1c(C(N)=O)[nH]c2ccc(Cl)cc12 (centres unmarked) [Compound 6e] | – | – | – | 2 nM | 1.2 nM | 34.1 nM | – | – |
| CCOP(=O)(c1cccc(C(F)(F)F)c1)c1c(C(N)=O)[nH]c2ccc(Cl)cc12 (centres unmarked) [Compound 6f] | – | – | – | 6.7 nM | 498 nM | – | – | – |
| CCOP(=O)(c1cccc(C#N)c1)c1c(C(N)=O)[nH]c2ccc(Cl)cc12 (centres unmarked) [Compound 6g] | – | – | – | 9.5 nM | 195 nM | – | – | – |
| CCOP(=O)(c1cccc(C(C)C)c1)c1c(C(N)=O)[nH]c2ccc(Cl)cc12 (centres unmarked) [Compound 6i] | – | – | – | 1.2 nM | 3.5 nM | 9.1 nM | – | – |
| CCOP(=O)(c1cccc(OC)c1)c1c(C(N)=O)[nH]c2ccc(Cl)cc12 (centres unmarked) [Compound 6m] | – | – | – | 2.3 nM | 66.4 nM | – | – | – |
| CCOP(=O)(c1cccc2ccccc12)c1c(C(N)=O)[nH]c2ccc(Cl)cc12 (centres unmarked) [Compound 6t] | – | – | – | 32.5 nM | > 1250 nM | > 1250 nM | – | – |
| CCOP(=O)(c1ccc(C)cc1)c1c(C(N)=O)[nH]c2ccc(Cl)cc12 (centres unmarked) [Compound 6w] | – | – | – | 7.2 nM | > 1250 nM | – | – | – |
| CCOP(=O)(c1ccccc1C)c1c(C(N)=O)[nH]c2ccc(Cl)cc12 (centres unmarked) [Compound 6x] | 21.3 nM | 448 nM | – | – | – | – | – | – |
| CCOP(=O)(c1ccc(C)c(C)c1)c1c(C(N)=O)[nH]c2ccc(Cl)cc12 (centres unmarked) [Compound 6y] | 2.6 nM | > 1250 nM | – | – | – | – | – | – |
| COP(=O)(c1ccccc1)c1c(C(N)=O)[nH]c2ncc(Cl)cc12 (centres unmarked) [Compound 7-Aza] | 14.7 nM | 193 nM | > 1250 nM | – | – | – | – | – |
| COP(=O)(c1cc(C)cc(C)c1)c1c(C(N)=O)[nH]c2ccc(Cl)cc12 (centres unmarked) [Compound 7a] | – | – | – | 0.2 nM | 1 nM | 1.2 nM | – | – |
| COP(=O)(c1cccc(C2CC2)c1)c1c(C(N)=O)[nH]c2ccc(Cl)cc12 (centres unmarked) [Compound 7aa] | – | – | – | 2.2 nM | 3.7 nM | 7 nM | – | – |
| COP(=O)(c1cccc(C)c1)c1c(C(N)=O)[nH]c2ccc(Cl)cc12 (centres unmarked) [Compound 7ac] | 1.3 nM | 5.5 nM | 9.6 nM | – | – | – | – | – |
| COP(=O)(c1ccccc1C)c1c(C(N)=O)[nH]c2ccc(Cl)cc12 (centres unmarked) [Compound 7ad] | 1.3 nM | 4.7 nM | 32 nM | – | – | – | – | – |
| COP(=O)(c1ccc(C)c(C)c1)c1c(C(N)=O)[nH]c2ccc(Cl)cc12 (centres unmarked) [Compound 7ae] | – | – | – | 0.5 nM | 1.1 nM | 11.1 nM | – | – |
| COP(=O)(c1cc(F)cc(F)c1)c1c(C(N)=O)[nH]c2ccc(Cl)cc12 (centres unmarked) [Compound 7aj] | – | – | – | 0.6 nM | 9.1 nM | 17.7 nM | – | – |

| Compound | EC50 (HIV BH-10 WT; [2]) | EC50 [1, 3] | EC50 (HIV mutant strain Y181C; [4]) | EC50 (HIV BH-10 WT; [5]) | EC50 [1, 6] | EC50 (HIV mutant strain Y181C; [7]) | EC50 [1, 8] | EC50 (HIV BH-10 WT; read-out: EC50 WT///B, BH-10 cells, wild type) |
| --- | --- | --- | --- | --- | --- | --- | --- | --- |
| COP(=O)(c1ccc(F)cc1)c1c(C(N)=O)[nH]c2ccc(Cl)cc12 (centres unmarked) [Compound 7ak] | – | – | – | 5.5 nM | 468 nM | 34.5 nM | – | – |
| COP(=O)(c1ccccc1F)c1c(C(N)=O)[nH]c2ccc(Cl)cc12 (centres unmarked) [Compound 7al] | 0.5 nM | 2.6 nM | 13.9 nM | – | – | – | – | – |
| CCc1ccccc1P(=O)(OC)c1c(C(N)=O)[nH]c2ccc(Cl)cc12 (centres unmarked) [Compound 7an] | – | – | – | 2.9 nM | 1.3 nM | 50.5 nM | – | – |
| COP(=O)(c1ccccc1Cl)c1c(C(N)=O)[nH]c2ccc(Cl)cc12 (centres unmarked) [Compound 7ao] | – | – | – | 0.4 nM | 1.4 nM | 2 nM | – | – |
| COP(=O)(c1cccc(COCc2ccccc2)c1)c1c(C(N)=O)[nH]c2ccc(Cl)cc12 (centres unmarked) [Compound 7ap] | – | – | – | 153 nM | > 1250 nM | 1140 nM | – | – |
| COP(=O)(c1cccc(CO)c1)c1c(C(N)=O)[nH]c2ccc(Cl)cc12 (centres unmarked) [Compound 7aq] | – | – | – | 2.5 nM | 126 nM | 83.1 nM | – | – |
| COP(=O)(c1cccc(C(C)(C)C)c1)c1c(C(N)=O)[nH]c2ccc(Cl)cc12 (centres unmarked) [Compound 7ar] | – | – | – | 2.9 nM | 30.6 nM | 19.3 nM | – | – |
| COP(=O)(c1cc(C)cc(C#N)c1)c1c(C(N)=O)[nH]c2ccc(Cl)cc12 (centres unmarked) [Compound 7as] | – | – | – | 1.4 nM | 2.9 nM | 4.8 nM | – | – |
| COP(=O)(c1cc(F)cc(C#N)c1)c1c(C(N)=O)[nH]c2ccc(Cl)cc12 (centres unmarked) [Compound 7at] | 5.7 nM | 10.3 nM | 22.1 nM | – | – | – | – | – |
| COP(=O)(c1cc(Cl)cc(Cl)c1)c1c(C(N)=O)[nH]c2ccc(Cl)cc12 (centres unmarked) [Compound 7b] | – | – | – | 1.2 nM | 16.8 nM | 5.3 nM | – | – |
| COP(=O)(c1cccc(Cl)c1)c1c(C(N)=O)[nH]c2ccc(Cl)cc12 (centres unmarked) [Compound 7c] | – | – | – | 0.4 nM | 2.6 nM | 8.7 nM | – | – |
| CCc1cccc(P(=O)(OC)c2c(C(N)=O)[nH]c3ccc(Cl)cc23)c1 (centres unmarked) [Compound 7d] | – | – | – | 0.6 nM | 1.4 nM | 6.5 nM | – | – |
| COP(=O)(c1cccc(C(F)(F)F)c1)c1c(C(N)=O)[nH]c2ccc(Cl)cc12 (centres unmarked) [Compound 7e] | – | – | – | 0.9 nM | 1.2 nM | 3.2 nM | – | – |
| COP(=O)(c1cccc(C#N)c1)c1c(C(N)=O)[nH]c2ccc(Cl)cc12 (centres unmarked) [Compound 7f] | – | – | – | 0.9 nM | 15.3 nM | 10.5 nM | – | – |
| COP(=O)(c1cccc(C(C)C)c1)c1c(C(N)=O)[nH]c2ccc(Cl)cc12 (centres unmarked) [Compound 7g] | – | – | – | 2.5 nM | 7.7 nM | 8.8 nM | – | – |
| COP(=O)(c1cccc(CF)c1)c1c(C(N)=O)[nH]c2ccc(Cl)cc12 (centres unmarked) [Compound 7h] | – | – | – | 0.9 nM | 2.5 nM | 6.1 nM | – | – |
| COP(=O)(c1cccc(-c2ccccc2)c1)c1c(C(N)=O)[nH]c2ccc(Cl)cc12 (centres unmarked) [Compound 7i] | – | – | – | 9.9 nM | 380 nM | 398 nM | – | – |
| COP(=O)(c1cc(F)cc(Br)c1)c1c(C(N)=O)[nH]c2ccc(Cl)cc12 (centres unmarked) [Compound 7j] | – | – | – | 1.8 nM | 4.1 nM | 3 nM | – | – |
| COc1cccc(P(=O)(OC)c2c(C(N)=O)[nH]c3ccc(Cl)cc23)c1 (centres unmarked) [Compound 7l] | – | – | – | 0.6 nM | 21.8 nM | 38.5 nM | – | – |
| COP(=O)(c1cc(C)cc(C)c1)c1c(C(=O)NCc2ccc(F)cc2F)[nH]c2ccc(Cl)cc12 (centres unmarked) [Compound 18aaj] | – | – | – | – | 41.6 nM | – | 25.8 nM | – |
| COc1cccc(P(=O)(OC)c2c(C(=O)NCc3ccncc3)[nH]c3ccc(Cl)cc23)c1 (centres unmarked) [Compound 18av] | – | – | – | 0.7 nM | 2.4 nM | – | 1.4 nM | 0.8 nM |
| COP(=O)(c1c(C(N)=O)[nH]c2ccc(Cl)cc12)C1CCCCC1 (centres unmarked) [Compound 57a] | – | – | – | 1.7 nM | 162 nM | – | – | – |
